Data published in patent US9617272B2, “Tricyclic compounds as inhibitors of immunosuppression mediated by tryptophan metabolization” (NewLink Genetics Corporation, priority 2013, dated 2017).
pIC50: −log10 of the molar value.

Tests used:
[1] = target: purified human TDO protein (Homo sapiens (Human), UniProt P48775); experiment: Enzymatic TDO assay; assay type: biochemical
Experimental: Differently from the IDO activity assay, no methylene blue is added to the assay. The inhibitors were initially diluted in DMSO at 100 mM and were diluted in potassium phosphate 50 mM, added to the reaction mixture at final concentrations raging from 300 μM to 5 nM and preincubated with the enzyme for 5 min at 25° C. The reaction was started by addition of L-tryptophan to 200 μM and incubated 15 min at 37° C. The reaction was stopped by addition of 0.5 vol of 30% trichloroacetic acid and incubated 30 min at 60° C. to hydrolyze N-formylkynurenine to kynurenine. The reaction was centrifuged at 3400 g for 5 min to remove precipitated protein and the supernatant was reacted with 2% (w/v) of p-dimethylaminobenzaldehyde in acetic acid. The reaction was incubated 10 min at 25° C. and read at 480 nm in a spectrophotometer. Control samples with no TDO inhibitor, or with no TDO enzyme were used as controls to set the parameters for the non-linear regressions necessary for determination of the IC50 for each compound. Nonlinear regressions and determination of the IC50 values were performed using the GraphPad Prism 4 software.

[2] = target: purified human IDO protein (Homo sapiens (Human), UniProt P14902); experiment: Enzymatic IDO assay; assay type: biochemical
Experimental: Expression vectors for human indoleamine-2,3-dioxygenase (IDO) protein were prepared by amplification of a 1219 bp fragment of the sequence present in vector phIDO6His cDNA with primers 5′-ggagcatgcta[…]-3′ (SEQ ID NO: 1) and 5′gagagatct[…]-3′ (SEQ ID NO: 2) and cloning the SphI-BglII 1213 bp fragment into pQE70 (Qiagen), to yield vector pQE70-hIDO. This construct adds 2 extra amino acids and a 6-Histidine tag to the C-terminus of the natural human IDO protein while preserving intact the natural start codon and N-terminus amino acid sequence.
Plasmid pQE70-hIDO was transformed into M15(pREP4) cells (Qiagen) and clones were selected in LB-agar plates supplemented with carbenicillin 50 μg/mL and kanamycin 30 μg/mL. Protein expression was carried out by growing an overnight culture of the M15pREP4/pQE70-hIDO clone in 100 mL LB supplemented with 100 μg/mL carbenicillin, 50 μg/mL kanamycin and 50 μg/mL of L-tryptophan (LBCKT medium). 40 mL of this culture were inoculated into 750 mL of LBCKT for 4 hours at 37° C. This culture was diluted 1:10 into LBCKT medium and cultured for another 2 hours at 37° C. until OD600 was higher than 0.8. At this point the cultures were inoculated with Hemin to 7 μM and L-Tryptophan to 75 μg/mL and incubated at 37° C. for 2 h. Induction of protein expression was carried out by supplementing the cultures with IPTG to 1 mM, PMSF to 200 μM, EDTA to 1 mM and L-tryptophan to 50 μg/mL. Incubation was continued for additional 16 h at 25° C. Cells were collected by centrifugation, and the cell pellets were washed with PBS buffer supplemented with 200 μM PMSF and 1 mM EDTA and stored at −80° C. until protein purification.
The equivalent of 16 L of culture were processed in one batch of purification. Cell pellets were thawed, resuspended in 50 mM potassium phosphate buffer pH 7.0, 200 μM PMSF, 1 mM EDTA, 1 mg/mL lysozyme to 10 mL per liter of bacterial culture and incubated 30 minutes on ice. Cells were then lysed by sonication. Cell lysates were centrifuged 20 min at 20000 g and the supernatant was filtered through 0.45 μm filters. The filtered supernatant was loaded onto a 60 mL phosphocellulose column equilibrated with 50 mM potassium phosphate buffer pH 6.5 (KPB) at 1-3 mL/min. The column was washed with 3 volumes of 50 mM KPB, 3 volumes of 100 mM KPB and the protein was eluted with 15 volumes of a linear gradient of 100-500 mM KPB. Fractions were collected and IDO activity assay was performed by measuring kynurenine production. This was carried out by mixing 50 μL of each fraction with 100 μL of reaction mix to yield a final concentration of 50 mM KPB buffer, 20 mM ascorbic acid, 200 μg/mL catalase, 20 μM methylene blue and 400 μM L-tryptophan. […] Collected fractions were assayed by IDO enzymatic assay described above and the positive fractions were pooled and concentrated by ultrafiltration and dialyzed against a buffer containing 250 mM KPB, 50% glycerol.
The inhibitors were initially diluted in DMSO at 100 mM and were diluted in potassium phosphate 50 mM, added to the reaction mixture at final concentrations raging from 1 mM to 5 nM and preincubated with the enzyme for 5 min at 25° C. The reaction was started by addition of L-tryptophan to 200 μM and incubated 15 min at 37° C. The reaction was stopped by addition of 0.5 vol of 30% trichloroacetic acid and incubated 30 min at 60° C. to hydrolyze N-formylkynurenine to kynurenine. The reaction was centrifuged at 3400 g for 5 min to remove precipitated protein and the supernatant was reacted with 2% (w/v) of p-dimethylaminobenzaldehyde in acetic acid. The reaction was incubated 10 min at 25° C. and read at 480 nm in a spectrophotometer.

purified human TDO protein, sequence (P48775 whole entry): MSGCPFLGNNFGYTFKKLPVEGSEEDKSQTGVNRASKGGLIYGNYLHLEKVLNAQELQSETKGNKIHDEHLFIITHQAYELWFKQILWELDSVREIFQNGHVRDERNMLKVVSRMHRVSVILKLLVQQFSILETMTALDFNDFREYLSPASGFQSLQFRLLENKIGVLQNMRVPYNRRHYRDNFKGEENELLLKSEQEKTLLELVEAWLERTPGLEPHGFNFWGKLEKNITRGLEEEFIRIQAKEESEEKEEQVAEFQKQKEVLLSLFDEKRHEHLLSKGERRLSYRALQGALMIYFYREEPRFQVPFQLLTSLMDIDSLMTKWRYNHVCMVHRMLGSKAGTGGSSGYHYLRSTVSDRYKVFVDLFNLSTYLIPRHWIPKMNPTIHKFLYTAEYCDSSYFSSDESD
purified human IDO protein, sequence (P14902 whole entry P110S/E119G, the tested form may be a part): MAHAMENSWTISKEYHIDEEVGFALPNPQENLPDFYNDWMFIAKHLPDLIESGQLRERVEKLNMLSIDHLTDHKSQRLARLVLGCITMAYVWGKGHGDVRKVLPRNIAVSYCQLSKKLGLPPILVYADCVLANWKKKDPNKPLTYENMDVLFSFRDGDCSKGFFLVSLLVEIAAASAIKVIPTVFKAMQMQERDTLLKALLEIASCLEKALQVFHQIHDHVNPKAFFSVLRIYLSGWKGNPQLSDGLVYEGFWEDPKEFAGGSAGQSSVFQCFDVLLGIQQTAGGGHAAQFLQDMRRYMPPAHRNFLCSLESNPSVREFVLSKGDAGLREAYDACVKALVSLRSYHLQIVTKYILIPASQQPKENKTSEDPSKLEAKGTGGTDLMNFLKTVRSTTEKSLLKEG

| Compound | pIC50 [1] | pIC50 [2] |
| --- | --- | --- |
| O=C(CC1c2ccccc2-n2cncc21)C1CCCCC1 (centres unmarked) [Compound 27, 1-cyclohexyl-2-(9H-imidazo[1,5-a]indol-9-yl)ethan-1-one] | > 6.00 | 5.00 to 6.00 |
| O=C(CC1c2ccccc2-c2nncn21)C1CCCCC1 (centres unmarked) [Compound 43, 2-(5H-[1,2,4]triazolo[3,4-a]isoindol-5-yl)-1-cyclohexylethan-1-one] | < 4.00 | < 4.00 |
| O=C(CC1c2ccccc2-c2cnnn21)C1CCCCC1 (centres unmarked) [Compound 53, 2-(8H-[1,2,3]triazolo[5,1-a]isoindol-8-yl)-1-cyclohexylethan-1-one] | 4.00 to 5.00 | 4.00 to 5.00 |
| O=C(CC1c2ccccc2-c2cnnn21)C1CCC(F)(F)CC1 (centres unmarked) [Compound 54, 2-(8H-[1,2,3]triazolo[5,1-a]isoindol-8-yl)-1-(4,4-difluorocyclohexyl)ethan-1-one] | < 4.00 | < 4.00 |
| OC(CC1c2ccccc2-c2cnnn21)C1CCCCC1 (centres unmarked) [Compound 66, 2-(8H-[1,2,3]triazolo[5,1-a]isoindol-8-yl)-1-cyclohexylethan-1-ol] | 4.00 to 5.00 | 4.00 to 5.00 |
| OC(CC1c2ccccc2-c2cnnn21)C1CCC(F)(F)CC1 (centres unmarked) [Compound 68, 2-(8H-[1,2,3]triazolo[5,1-a]isoindol-8-yl)-1-(4,4-difluorocyclohexyl)ethan-1-ol] | 5.00 to 6.00 | 4.00 to 5.00 |
| OC(CC1c2ccccc2-c2nncn21)C1CCCCC1 (centres unmarked) [Compound 69, 2-(5H-[1,2,4]triazolo[3,4-a]isoindol-5-yl)-1-cyclohexylethan-1-ol] | < 4.00 | < 4.00 |
| OC(CC1c2ccccc2-n2cncc21)C1CCCCC1 (centres unmarked) [Compound 70, 1-cyclohexyl-2-(9H-imidazo[1,5-a]indol-9-yl)ethan-1-ol] | > 6.00 | – |
| c1ccc2c(c1)Cc1cn[nH]c1-2 [Compound 101] | 5.00 to 6.00 | < 4.00 |
